Among the test systems are DU-145; UACC-62; EKVX; HCT-15; U-251; M14; UO-31; OVCAR-8; COLO 205; Hs-578T; A549; NCI-H23; MCF7; CAKI-1; NCI-H460; SN12C; MDA-MB-231; MDA-N; SK-OV-3.
Test in all cases: inhibition of tumour cell growth, NCI panel, 48 h

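These data come from cells grown in 96-well plates and exposed to compound for 48 hours at five concentrations. GI50 = concentration required for 50% inhibition of growth.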 Active and inactive are the calls of the source. Rule as the data show it: active = GI50 up to about 1.1 µM and inactive = higher.

As to `c1ccc(CSP234N5CCN2CCN3CCN4CC5)c(CSP234N5CCN2CCN3CCN4CC5)c1`, the GI50 with DU-145 is > 100 µM (inactive); in the experiment with UACC-62 it was > 100 µM (inactive); with EKVX it was > 100 µM (inactive); with HCT-15 it was > 100 µM; in the experiment on U-251, > 100 µM (inactive); in the experiment with M14, 31.5 µM (inactive). Besides, the GI50 with UO-31 is 81.1 µM (inactive); in the experiment on OVCAR-8 it was > 100 µM (inactive); with COLO 205, 13.6 µM (inactive); with Hs-578T, 80.2 µM (inactive); with A549, > 100 µM (inactive); with NCI-H23 it was > 100 µM (inactive). Further, the GI50 in the experiment on MCF7 was > 100 µM (inactive); in the experiment with CAKI-1 it was > 100 µM (inactive); in the experiment on NCI-H460, > 100 µM (inactive); in the experiment with SN12C, 14.4 µM (inactive); in the experiment with MDA-MB-231, > 100 µM (inactive); with MDA-N, 13.4 µM (inactive).

In the case of `CC(C)(C)OC(=O)NCCNC(=O)CN(CC(=O)O)C1CCCCC1N(CC(=O)O)CC(=O)O` (stereo not given), the GI50 is > 100 µM (inactive) in the experiment with DU-145; > 100 µM (inactive) with UACC-62; > 100 µM with HCT-15; > 100 µM (inactive) in the experiment with U-251; > 100 µM (inactive) in the experiment with M14; > 100 µM (inactive) in the experiment with UO-31. The GI50 in the experiment with OVCAR-8, with COLO 205, in the experiment with Hs-578T, in the experiment with A549, in the experiment with NCI-H23 and in the experiment with MCF7 was > 100 µM (inactive) throughout. In addition, the GI50 in the experiment with SK-OV-3, in the experiment with CAKI-1, with NCI-H460, with SN12C, in the experiment with MDA-MB-231 and in the experiment on MDA-N was > 100 µM (inactive) throughout.

Take `CN1C(=O)C2CCC(=O)N2c2cccnc21` (stereo not given): the GI50 was > 100 µM (inactive) in the experiment with DU-145; > 100 µM (inactive) in the experiment with UACC-62; > 100 µM (inactive) with EKVX; > 100 µM in the experiment with HCT-15; > 100 µM (inactive) in the experiment with U-251; > 100 µM (inactive) in the experiment on UO-31. Moreover, the GI50 in the experiment with OVCAR-8, in the experiment with COLO 205, in the experiment with Hs-578T, with A549, in the experiment on NCI-H23 and in the experiment with MCF7 was > 100 µM (inactive) in each case. Further, the GI50 in the experiment with CAKI-1, with NCI-H460, with SN12C, in the experiment with MDA-MB-231 and in the experiment with MDA-N was > 100 µM (inactive) each time.

In the case of `COc1ccc(OC)c(CC(=O)c2ccc(O)c(C(=O)NCCc3ccc(F)cc3)c2)c1`, the GI50 in the experiment with DU-145 is 1.73 µM (inactive); in the experiment on EKVX, 7.13 µM (inactive); in the experiment with HCT-15, 2.3 µM; in the experiment on U-251, 3.6 µM (inactive); in the experiment with M14, 2.28 µM (inactive); with UO-31 it was 4.76 µM (inactive). Besides, the GI50 with OVCAR-8 is 4.23 µM (inactive); in the experiment with COLO 205, 16.9 µM (inactive); in the experiment on Hs-578T, 3.1 µM (inactive); in the experiment with A549 it was 4.49 µM (inactive); with NCI-H23, 3.12 µM (inactive); in the experiment with MCF7, 2.99 µM (inactive). Also, the GI50 in the experiment on SK-OV-3 was 2.69 µM (inactive); in the experiment with CAKI-1 it was 3.26 µM (inactive); in the experiment on NCI-H460, 3.85 µM (inactive); with MDA-MB-231 it was 4.74 µM (inactive); in the experiment on MDA-N it was 0.498 µM (active).

The values are drawn from ChEMBL document CHEMBL1201862, “PubChem BioAssay data set” (2004).
